Values quoted from earlier work, collected in PMC4273976 (ACS chemical biology, 2014).

System: EphA4-dependent growth cone collapse
Details: 5 μM peptide, nasal retinal explants; cited from earlier work

For KYLPYWPVLSSL, the “inhibition of ephrin-A5-induced growth cone collapse” value is listed as “blocked”.
